Measured values: patent publication US20120251628A1, “COMPOSITIONS AND METHODS FOR TREATMENT OF CANCER” (priority 2011, published 2012)

Key:
[1] = tested on: CT26 (mouse colon cancer); assay: DCE-MRI of tumor vascularity (Kep) in CT26 tumor mice; type: in vivo
Protocol: To determine whether the occurrence of central necrosis of tumors 24 hours after treatment was caused by the reduction of vascularity, DCE-MRI was used before the medication was administered and 24 hours after administration.
Inoculate CT26 (mouse colon cancer) 2×10^6 cell subcutaneously into mice on the upper parts of their thighs.
After checking the tumor size between 6 to 10 mm, acquire images through MRI.
Image Acquisition: Use a magnetic resonance imaging device (i.e., 3 Tesla Intera human clinical scanner; Philips medical systems) and a mouse coil with an inner diameter of 4 cm to get images. Acquire images before the drug is administered and those 24 hours after that for two days.
MR Pulse Sequence as follows: Dynamic Contrast enhanced MRI scan: FOV (mm)=50×35; RFOV (%)=71; Matrix scan=112; reconstruction=224; TR/TE (ms)=12/4.0; slice thickness=1 mm; slice number=11; dynamic scans=60.
i. Conduct an experiment to the subjects under anesthesia by using an inhalation anesthetic mixing 1.5% isoflurane in 100% oxygen at a flow rate of 1 L/min.
ii. Cannulate an intravenous injection line through the tail vein to inject a contrast agent.
iii. Use Gd-DTPA (Magnevist, Schering, Germany, 281 mg/kg) as a contrast agent and get pre-contrast images before injecting the contrast agent and post-contrast images after injecting it.
iv. After getting the images, inject KML001 (10 mg/kg) and Arsenic trioxide (7.5 mg/kg) intraperitoneally.
v. Get images through a dynamic scan again 24 hours after injection.
Accordingly, the groups of animals with which the DCE-MRI data was obtained are as follows: Group of animals treated with ATO: n=4, Group of animals treated with Saline: n=4 and Group of animals treated with KML001: n=6.
As the low data in MRI was mapped from each result of the DCE-MRI to the positive control group of animals treated with ATO, the negative control group of animals treated with saline and the experimental group of animals treated with KML001, Kep values important for tumor vascularity were calculated. Kep (rate constant) is the back diffusion rate constant from interstitial space to vascular space, reflecting leakage of tumor vessels, i.e., a measurement of vascularity.

[2] = tested on: acute promyelocytic leukemia (APL); settings: patients to which arsenic trioxide was administered; cited from earlier work

Substance: arsenic trioxide [ATO, reference compound]
- Kep values (back diffusion rate constant, tumor vascularity) ([1]; 24 hours after intraperitoneal injection vs pre-treatment, KML001 10 mg/kg, ATO 7.5 mg/kg): significantly reduced
- contrast enhancement of the tumors in the MRI ([1]; 24 hours after treatment): decreased
- patients showing therapeutic effects without acute toxicity [2]: more than 80%
